Key:
[1] = target: T1, Beta-secretase 1 (Homo sapiens, UniProt P56817); assay: Inhibition of BACE1 in human HEK293 cells transfected with pCDNA-neo-SEAP-APP assessed as secreted alkaline phosphatase after cleavage of beta-site of APP by fluorescence assay; type: cell-based
[2] = target: T1, Beta-secretase 1; assay: Inhibition of BACE1

T1 sequence (P56817 whole entry): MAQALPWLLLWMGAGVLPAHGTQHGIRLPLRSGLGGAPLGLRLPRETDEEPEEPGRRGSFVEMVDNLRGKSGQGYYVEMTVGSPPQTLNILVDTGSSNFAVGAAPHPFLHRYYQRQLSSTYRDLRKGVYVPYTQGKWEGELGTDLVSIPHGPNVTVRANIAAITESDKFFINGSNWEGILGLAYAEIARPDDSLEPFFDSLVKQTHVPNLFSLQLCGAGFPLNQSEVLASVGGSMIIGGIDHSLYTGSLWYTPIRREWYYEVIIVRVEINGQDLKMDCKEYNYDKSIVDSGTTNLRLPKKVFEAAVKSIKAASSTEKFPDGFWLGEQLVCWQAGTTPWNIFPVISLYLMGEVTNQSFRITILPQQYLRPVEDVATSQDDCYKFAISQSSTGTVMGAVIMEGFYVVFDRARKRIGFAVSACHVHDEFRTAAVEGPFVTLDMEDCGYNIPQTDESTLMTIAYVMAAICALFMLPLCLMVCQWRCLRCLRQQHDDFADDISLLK

SMILES: CC1=C(C(=O)N[C@@H](Cc2ccccc2)[C@H](O)CNC2CC2)C(C)C(C(=O)N[C@H](C)c2ccccc2)=C(C)N1S(C)(=O)=O (stereo not given in full)
- IC50 [1]: 16.1 µM

SMILES: CC1=C(C(=O)NOCc2ccccc2)C(C)C(C(=O)N[C@@H](Cc2ccccc2)[C@H](O)CNC2CC2)=C(C)N1S(C)(=O)=O (stereo not given in full)
- IC50 [1]: 14.9 µM

SMILES: CCCC1C(C(=O)NOCc2ccccc2)=C(C)N(S(C)(=O)=O)C(C)=C1C(=O)N[C@@H](Cc1ccccc1)[C@H](O)CNC1CC1 (stereo not given in full)
- IC50 [1]: 8.1 µM

SMILES: CC1=C(C(=O)NOCc2ccccc2)C(c2ccccc2)C(C(=O)N[C@@H](Cc2ccccc2)[C@H](O)CNC2CC2)=C(C)N1S(C)(=O)=O (stereo not given in full)
- IC50 [1]: 21.4 µM

SMILES: COC(=O)CN1C(C)=C(C(=O)NOCc2ccccc2)C(C)C(C(=O)N[C@@H](Cc2ccccc2)[C@H](O)CNC2CC2)=C1C (stereo not given in full)
- IC50 [1]: 15.2 µM

SMILES: CCCC1C(C(C)=O)=C(C)N(CC(=O)OC(C)C)C(C)=C1C(=O)N[C@@H](Cc1ccccc1)[C@H](O)CNc1cccc(F)c1 (stereo not given in full)
- IC50 [1]: 27.1 µM

SMILES: COc1cccc(CNC[C@@H](O)[C@H](Cc2ccccc2)NC(=O)C2=CN(CC(=O)OC(C)C)C(C)=C(C(C)=O)C2C)c1 (stereo not given in full)
- IC50 [1]: 26.1 µM

SMILES: CCCC1C(C(C)=O)=C(C)N(CC(=O)OC(C)C)C(C)=C1C(=O)N[C@@H](Cc1ccccc1)[C@H](O)CNc1cccc(OC)c1 (stereo not given in full)
- IC50 [1]: 26.6 µM

SMILES: CC1=C(C(=O)N[C@@H](Cc2ccccc2)[C@H](O)CNC2CC2)C(C)C(C(=O)OCc2ccccc2)=C(C)N1CC(=O)N(C)C (stereo not given in full)
- IC50 [1]: 39.1 µM

SMILES: CC1=C(C(=O)N[C@@H](Cc2ccccc2)[C@H](O)CNC2CC2)C(C)C(C(=O)OCc2ccccc2)=C(C)N1CC(=O)N(C)C(C)C (stereo not given in full)
- IC50 [1]: 28.2 µM

SMILES: CCCC1C(C(=O)N[C@@H](Cc2ccccc2)[C@H](O)CNc2cccc(OC)c2)=CN(CC(=O)OC(C)C)C=C1C(=O)OC(C)(C)C (stereo not given in full)
- IC50 [1]: 30.4 µM

SMILES: CCCC1C(C(=O)N[C@@H](Cc2ccccc2)[C@H](O)CNC2CC2)=CN(CC(=O)OC(C)C)C=C1C(=O)N[C@H](C)c1ccccc1 (stereo not given in full)
- IC50 [1]: 29.6 µM

SMILES: CCCC1C(C(=O)N[C@@H](Cc2ccccc2)[C@H](O)CNc2cccc(OC)c2)=CN(CC(=O)OC(C)C)C=C1C(=O)N[C@H](C)c1ccccc1 (stereo not given in full)
- IC50 [1]: 31.2 µM

SMILES: CC(=O)C1=C(C)N(CC(=O)OC(C)C)C(C)=C(C(=O)N[C@@H](Cc2ccccc2)[C@H](O)CNc2cccc(F)c2)C1C (stereo not given in full)
- IC50 [1]: 26.4 µM

SMILES: CCCC1C(C(C)=O)=C(C)N(CC(=O)OC(C)C)C(C)=C1C(=O)N[C@@H](Cc1ccccc1)[C@H](O)CNC1CC1 (stereo not given in full)
- IC50 [1]: 33.1 µM

SMILES: CC(=O)C1=C(C)N(CC(=O)OC(C)C)C(C)=C(C(=O)N[C@@H](Cc2ccccc2)[C@H](O)CNC2CC2)C1C (stereo not given in full)
- IC50 [1]: 29.3 µM

SMILES: CC(C)OC(=O)CN1C=C(C(=O)N[C@@H](Cc2ccccc2)[C@H](O)CNC2CC2)C(C)C(C(=O)OC(C)(C)C)=C1 (stereo not given in full)
- IC50 [1]: 31.9 µM

SMILES: CCCC1C(C(=O)N[C@@H](Cc2ccccc2)[C@H](O)CNC2CC2)=CN(CC(=O)OC(C)C)C=C1C(=O)OC(C)(C)C (stereo not given in full)
- IC50 [1]: 24.6 µM

SMILES: CCC1C(C(=O)N[C@@H](Cc2ccccc2)[C@H](O)CNC2CC2)=C(C)N(S(C)(=O)=O)C(C)=C1C(=O)N[C@H](C)c1ccccc1 (stereo not given in full)
- IC50 [1]: 16.2 µM

SMILES: CCC1C(C(=O)NOCc2ccccc2)=C(C)N(S(C)(=O)=O)C(C)=C1C(=O)N[C@@H](Cc1ccccc1)[C@H](O)CNC1CC1 (stereo not given in full)
- IC50 [1]: 9.5 µM

SMILES: CC1=C(C(=O)NOCc2ccccc2)C(C(C)C)C(C(=O)N[C@@H](Cc2ccccc2)[C@H](O)CNC2CC2)=C(C)N1S(C)(=O)=O (stereo not given in full)
- IC50 [1]: 11 µM

SMILES: CC1=C(C(=O)NOCc2ccccc2)C(C)C(C(=O)N[C@@H](Cc2ccccc2)[C@H](O)CNC2CC2)=C(C)N1CC(=O)OC(C)C (stereo not given in full)
- IC50 [1]: 9 µM

SMILES: CCOC(=O)CN1C(C)=C(C(=O)NOCc2ccccc2)C(C)C(C(=O)N[C@@H](Cc2ccccc2)[C@H](O)CNC2CC2)=C1C (stereo not given in full)
- IC50 [1]: 15.5 µM

SMILES: CCCC1C(C(C)=O)=C(C)N(CC(=O)OC(C)C)C(C)=C1C(=O)N[C@@H](Cc1ccccc1)[C@H](O)CNCc1cccc(OC)c1 (stereo not given in full)
- IC50 [1]: 23.2 µM

SMILES: CC(=O)OCCCN1C(C)=C(C(=O)N[C@@H](Cc2ccccc2)[C@H](O)CNC2CC2)C(C)C(C(=O)OCc2ccccc2)=C1C (stereo not given in full)
- IC50 [1]: 26.9 µM

SMILES: CC1=C(C(=O)N[C@@H](Cc2ccccc2)[C@H](O)CNC2CC2)C(C)C(C(=O)OCc2ccccc2)=C(C)N1CC(=O)N1CCOCC1 (stereo not given in full)
- IC50 [1]: 28.4 µM

SMILES: CC1=C(C(=O)OCc2ccccc2)C(C)C(C(=O)N[C@@H](Cc2ccccc2)[C@H](O)CNC2CC2)=CN1CC(=O)OC(C)C (stereo not given in full)
- IC50 [1]: 16.1 µM

SMILES: CC(C)OC(=O)CN1C=C(C(=O)N[C@@H](Cc2ccccc2)[C@H](O)CNC2CC2)C(C)C(C(=O)N[C@H](C)c2ccccc2)=C1 (stereo not given in full)
- IC50 [1]: 32.8 µM

SMILES: CC(=O)C1=C(C)N(CC(=O)OC(C)C)C=C(C(=O)N[C@@H](Cc2ccccc2)[C@H](O)CNc2cccc(F)c2)C1C (stereo not given in full)
- IC50 [1]: 29.3 µM

SMILES: CCNc1cc(C(=O)N[C@@H](Cc2ccccc2)[C@H](O)CNc2cccc(C(F)(F)F)c2)cc(N2CCCCS2(=O)=O)c1
- IC50 [2]: 5 nM

From ChEMBL document CHEMBL1165903, “Design and synthesis of 1,4-dihydropyridine derivatives as BACE-1 inhibitors” (Eur J Med Chem, 2010)
